{
  "source": "patent US9243037B2",
  "about": "“Gramicidin a mutants that function as antibiotics with improved solubility and reduced toxicity” (Trustees of Boston College, priority 2011, dated 2016)",
  "key": {"physchem": {"assay": "physchem", "assay_type": "physicochemical", "summary_of_the_method": "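Peptide DMSO stock (6.0-8.0 mM) diluted 100-fold into 10 mM HEPES, pH 7.0, giving 1% DMSO; sonicated 30 min, centrifuged 14,000 rpm for 10 min. Supernatant concentration determined from tryptophan absorbance at 280 nm (ε=22760 M−1 cm-1).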"}, "[1]": {"assay": "K+ release from liposomes, lipid not specified", "assay_type": "biochemical", "conditions": "in words", "procedure": "With the D-Lys residues incorporated towards the C-terminus, the gA peptide analogs described herein display amphipathic sequences. Since many amphipathic peptides are known to cause membrane damage through a detergent-like mechanism instead of forming specific channels,[19] it was further examined whether it is the case with the gA peptide analogs provided herein. Toward this end, the ion selectivity of gA-3, 4, and 5 was assessed by using liposomes encapsulating K+ and Tb3+ respectively. […] The wild type like channel structure of the D-Lys mutants is further supported by the fact that gA-5 and gA-WT share similar signatures in their circular dichroism spectra (FIG. 11). This exclusive leakage of monovalent cations presents a great advantage of the gA analog peptides described herein in comparison to the majority of AMPs, which often cause catastrophic membrane collapse to release all bacterial cellular content, leading to potential complications of over-stimulated immune response.\nThe K+ leakage from liposomes was determined by a potassium ion selective electrode (K-ISE, Cole-Parmer, Vernon Hills, Ill.). The electrode was calibrated each day before experiments. A liposome solution in Buffer A (2 mL, 500 μM POPC or POPC/POPG⊃10 mM HEPES, 150 mM KCl, pH 7.0) was stirred at constant speed and peptide at various concentration (1 μL in DMSO) was added accumulatively. Three minutes after each peptide addition, the K+ concentration was measured and reported as the K-ISE potential. At the end of each experiment, gA-WT stock (1 μL, 1 mM) was added to induce 100% K+ leakage. The potential reported by the K-ISE was plotted against peptide concentration after the background noise (caused by DMSO addition) was subtracted and normalized to 0-100%."}, "[2]": {"assay": "Proton leakage from EYPC vesicles (HPTS)", "assay_type": "biochemical", "conditions": "peptide premixed with lipids; in words", "procedure": "To confirm that lack of binding causes loss of membrane activity, we decided to premix the peptides and lipids in organic solvent and then dried out the mixture before hydration. Then, the peptides would be trapped into the bound form upon vesicle formation. The peptides distribution was determined by monitoring Trp fluorescence and the channel activity was determined by monitoring the proton leakage from LUVs using a pH sensitive fluorescence dye HPTS. Peptides 10, 12, 14K and 10, 12, 14 M gA were chosen to mix with neutral lipids EYPC."}, "[3]": {"system": "Staphylococcus aureus (ATCC 6538)"}},
  "note": "Entries after “also recorded” stand apart in the source; their conditions may differ. Where two headings read alike, the source gives them in different places. Marks after values point to notes of the source that are not given here.",
  "data": [
    {"smiles": "CC(C)C[C@@H](NC(=O)[C@H](C)NC(=O)CNC(=O)[C@@H](NC=O)C(C)C)C(=O)N[C@@H](C)C(=O)N[C@@H](C(=O)N[C@H](C(=O)N[C@@H](C(=O)N[C@@H](Cc1c[nH]c2ccccc12)C(=O)N[C@H](CCCCN)C(=O)N[C@@H](Cc1c[nH]c2ccccc12)C(=O)N[C@H](CCCCN)C(=O)N[C@@H](Cc1c[nH]c2ccccc12)C(=O)N[C@H](CCCCN)C(=O)N[C@@H](Cc1c[nH]c2ccccc12)C(=O)NCCO)C(C)C)C(C)C)C(C)C", "note": "(racemic) [gA-5, formyl-V-G-A-dL-A-dV-V-dV-W-dK-W-dK-W-dK-W-NHCH2CH2OH]", "values": [
      {"measurement": "solubility compared with the wild type", "setting": "physchem", "value": "three orders of magnitude"},
      {"measurement": "water solubility, fold higher than wild-type Gramicidin A", "setting": "physchem", "value": "~1500", "unit": "fold"},
      {"measurement": "solubility at 30 mins", "setting": "physchem; pH 7", "value": "~100", "unit": "µM"},
      {"measurement": "K+ release from LUVs", "setting": "[1]", "value": "potent activity in K+ release; also recorded: complete K^+ leakage"},
      {"measurement": "proton leakage from EYPC LUVs", "setting": "[2]", "value": "caused proton leakage"},
      {"measurement": "MICs S. Aureus", "setting": "[3]; ATCC 6538", "value": "> 10", "unit": "µM"},
      {"measurement": "MIC relative to wild-type Gramicidin A", "setting": "[3]; S. Aureus", "value": "much higher MIC"},
      {"measurement": "MICs S. Aureus", "setting": "[3]; Table 2, standard micro-dilution", "value": ">10 ^[e] μM"}
    ]}
  ]
}
